Consider one compound from US20190231822A1, “METHODS OF REDUCING CHRONIC GRAFT-VERSUS-HOST DISEASE” (Regents of the University of Minnesota, priority 2016, published 2019).

The structures appear in SMILES notation.

The assay relates to cGVHD. Description: cGVHD prevention or reversal by an iNKT agonist. It is filed as in vivo. As to conditions: intravascular administration.

Regarding `CCCCCCCCCCCCCCCCCCCCCCCCCC(=O)N[C@@H](CO[C@H]1O[C@H](CO)[C@H](O)[C@H](O)[C@H]1O)[C@H](O)[C@H](O)CCCCCCCCCCCCCC` [alpha-galactosylceramide], the “prevention or reversal of cGVHD” value is listed as “able to prevent or reverse cGVHD”.
